Measured values from PubChem BioAssay (NCI).
“And” between values parts separate entries of the source, which are not always exact repeats. Equal entries are not always repeated.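 These data come from cells grown in 96-well plates and exposed to compound for 48 hours at five concentrations. GI50: concentration for 50% inhibition of growth. At the TGI there is no net growth.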

Experiments:
Assay in all cases: inhibition of tumour cell growth, NCI panel, 48 h
[1] = system: ACHN renal
[2] = system: COLO 205 colon
[3] = system: EKVX NSCLC
[4] = system: HCC-2998 colon
[5] = system: KM12 colon
[6] = system: M14 melanoma
[7] = system: MALME-3M melanoma
[8] = system: NCI-H226 lung
[9] = system: OVCAR-5 ovarian
[10] = system: PC-3 prostate
[11] = system: SF-295 CNS
[12] = system: SF-539 CNS
[13] = system: SK-MEL-2 melanoma
[14] = system: SK-MEL-28 melanoma
[15] = system: SNB-19 CNS
[16] = system: T-47D breast
[17] = system: OVCAR-8 ovarian

| Structure (SMILES) | TGI [1] [µM] | TGI [2] [µM] | TGI [3] | TGI [4] | TGI [5] | TGI [6] | TGI [7] | TGI [8] [µM] | TGI [9] | TGI [10] | TGI [11] | TGI [12] | TGI [13] | TGI [14] [µM] | TGI [15] | TGI [16] | TGI [17] | GI50 [2] [µM] | GI50 [5] | GI50 [8] [µM] |
| --- | --- | --- | --- | --- | --- | --- | --- | --- | --- | --- | --- | --- | --- | --- | --- | --- | --- | --- | --- | --- |
| CN(C)c1cccc2c(S(=O)(=O)NCCCNCCN)cccc12 | > 100 | 32.8 | > 100 µM | 62.8 µM | > 100 µM | 33.9 µM | > 100 µM | > 100 | > 100 µM | > 100 µM | > 100 µM | 49.7 µM | 86.7 µM | > 100 | > 100 µM | > 100 µM | – | – | – | – |
| CN1C(CC(O)c2ccccc2)CCCC1CC(O)(c1ccccc1)c1ccccc1 (stereo unspecified) | 52.2 | 34.2 | 64.5 µM | 37.8 µM | 36.6 µM | 34.9 µM | 33.8 µM | 38.5 | 32.7 µM | 34.7 µM | 30.8 µM | 27.3 µM | – | 30.9 | 36.3 µM | 52.7 µM | 43 µM | – | – | – |
| COc1cc(/C=C/C(=O)N[C@@H]2C(=O)N3[C@@H]2SC(C)(C)[C@@H]3C(=O)O)ccc1O | > 100 | > 100 | > 100 µM | > 100 µM | > 100 µM | > 100 µM | – | > 100 | > 100 µM | > 100 µM | > 100 µM | > 100 µM | > 100 µM | > 100 | > 100 µM | > 100 µM | > 100 µM | – | – | – |
| CC(=O)O[C@H]1C(=O)[C@@]2(C)[C@H]([C@H](OC(=O)c3ccccc3)[C@]3(O)C[C@H](OC(=O)[C@H](O)[C@@H](NC(=O)C(C)(O)C(C)O)c4ccccc4)C(C)=C1C3(C)C)[C@]1(OC(C)=O)CO[C@@H]1C[C@@H]2O (stereo partly specified) | > 50 | 0.254 | > 50 µM | 0.743 µM | – | > 50 µM | > 50 µM | – | 4.65 µM | > 50 µM | 16.5 µM | 0.49 µM | – | > 50 | > 50 µM | > 50 µM | > 50 µM | – | – | – |
| CC(=O)OC1OC(C2c3cccc(O)c3C(=O)c3c(O)cc(CO)cc32)C(O)C(O)C1O (stereo unspecified) | – | 7.63 | 36.8 µM and 26 µM | 5.81 µM and 6.58 µM | 4.54 µM and 4.23 µM | 24.4 µM and 24.8 µM | 19.5 µM and 25.3 µM | – | 11.7 µM and 18.1 µM | 10.5 µM and 12.4 µM | 10.5 µM and 22 µM | 4.22 µM and 4.73 µM | 6.11 µM and 5.71 µM | 9.63 | 6.7 µM and 6.51 µM | 27.3 µM and 15.6 µM | 69.3 µM and > 100 µM | 2.7 | 0.811 µM and 0.17 µM | – |
| O=C1C2CCCCC2C(=O)N1n1c(Cc2ccccc2)n[nH]c1=O (stereo unspecified) | > 100 | > 100 | > 100 µM | > 100 µM | > 100 µM | > 100 µM | > 100 µM | > 100 | > 100 µM | > 100 µM | > 100 µM | > 100 µM | > 100 µM | – | > 100 µM | > 100 µM | > 100 µM | – | – | – |
| COc1cc([N+](=O)[O-])cc2c1NC(=O)C2(C)SC (stereo unspecified) | > 100 | > 100 | > 100 µM | > 100 µM | > 100 µM | > 100 µM | > 100 µM | > 100 | > 100 µM | > 100 µM | > 100 µM | – | > 100 µM | > 100 | > 100 µM | > 100 µM | > 100 µM | – | – | – |
| CCOC(=O)/C=C/C1=C(Br)[C@@]2(C)CC[C@@H]3c4ccc(O)cc4CC[C@H]3[C@@H]2C1 | 29.1 | 32.2 | 30.7 µM | 28.8 µM | 29.7 µM | 23.9 µM | 24.3 µM | 30.2 | 28.5 µM | 28.5 µM | 29.2 µM | 30.7 µM | 28.1 µM | 30 | 30.2 µM | 16.5 µM | – | – | – | – |
| CCOC(=O)CCCOc1cc(-c2ccccc2F)nc2cc3c(cc12)OCO3 | – | > 100 | > 100 µM | 32.1 µM | > 100 µM | > 100 µM | > 100 µM | > 100 | > 100 µM | > 100 µM | – | > 100 µM | > 100 µM | > 100 | – | > 100 µM | > 100 µM | – | – | 48.7 |
| O=C1NC(=O)C23C(=O)NC(=O)C12C1C=CC3CC1 (stereo unspecified) | > 10 | > 10 | > 10 µM | > 10 µM | > 10 µM | > 10 µM | > 10 µM | > 10 | – | > 10 µM | > 10 µM | > 10 µM | > 10 µM | > 10 | > 10 µM | > 10 µM | > 10 µM | – | – | – |
| O=C(O)c1ccc(C2=Nc3cccc4cccc(c34)N2)cc1 | > 100 | > 100 | > 100 µM | > 100 µM | > 100 µM | > 100 µM | > 100 µM | > 100 | – | > 100 µM | > 100 µM | > 100 µM | > 100 µM | > 100 | > 100 µM | > 100 µM | > 100 µM | – | – | – |
| COc1ccc(-c2n[nH]c3nc4ccccc4n3c2=O)cc1 | > 100 | > 100 | > 100 µM | > 100 µM | > 100 µM | > 100 µM | > 100 µM | > 100 | > 100 µM | > 100 µM | – | > 100 µM | > 100 µM | > 100 | > 100 µM | > 100 µM | > 100 µM | – | – | – |
| COC(OC)[C@@H]1OC[C@H](n2ccc(=O)[nH]c2=O)[C@H]1O | > 100 | > 100 | > 100 µM | > 100 µM | > 100 µM | > 100 µM | – | > 100 | > 100 µM | > 100 µM | > 100 µM | > 100 µM | > 100 µM | > 100 | > 100 µM | > 100 µM | – | – | – | – |
| O=C(c1ccccc1)N1CCC(Nc2cccnc2)O1 (stereo unspecified) | > 100 | – | > 100 µM | > 100 µM | > 100 µM | > 100 µM | > 100 µM | > 100 | > 100 µM | > 100 µM | > 100 µM | > 100 µM | > 100 µM | > 100 | > 100 µM | > 100 µM | > 100 µM | – | – | – |
